Experiments:
[1] = test system: bamyardgrass; test: Test B flood test barnyardgrass; type: in vivo, Echinochloa crus-galli; conditions: for Plant response rating, Barnyardgrass (0 to 10 scale, 0 is no effect, 10 is complete control) / Barnyardgrass plant response rating (0 to 10 scale, 0 is no effect, 10 is complete control): visual evaluation after twelve to sixteen days; for Barnyardgrass plant response rating (0 to 10 scale, 0 is no effect, 10 is complete control): under heading Pre-emergence
In short: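 Each value is a visual injury score relative to controls, with 10 meaning complete control and 0 no effect. Evaluation took place twelve to sixteen days after the 2-leaf-stage plants were treated and kept in the greenhouse.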

[2] = test system: blackgrass; test: Test B pre/postemergence blackgrass; type: in vivo, Alopecurus myosuroides
In short: (§1)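 Herbicidal effect was estimated by eye on a ten-point control scale after plants spent twelve to sixteen days in a greenhouse following soil or foliar treatment. Foliar sprays targeted plants at one to four leaves; all doses were formulated in a non-phytotoxic solvent with surfactant.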

[3] = test system: morningglory; test: Test B pre/postemergence morningglory; type: in vivo, Ipomoea hederacea
In short: as §1

[4] = test system: crabgrass; test: Test B pre/postemergence crabgrass; type: in vivo, Digitaria sanguinalis
In short: as §1

[5] = Postemergence block (flood test species), Rate 250 g/ha, scale 0 to 10
[6] = Postemergence section (flood test species), Rate 500 g/ha, scale of 0 to 10 where 0 is no effect and 10 is complete control
[7] = Rate 62 g/ha, Postemergence (flood test species), scale of 0 to 10 where 0 is no effect and 10 is complete control
[8] = Rate 125 g/ha, Postemergence section (flood test species), scale 0 to 10, 0 is no effect, 10 is complete control
[9] = Postemergence, Rate 250 g/ha, scale 0 to 10
[10] = Postemergence, Rate 500 g/ha, scale of 0 to 10 where 0 is no effect and 10 is complete control
[11] = Preemergence, Rate 62 g/ha, scale 0 to 10 (0 no effect, 10 complete control)
[12] = Preemergence, Rate 125 g/ha, scale of 0 to 10 where 0 is no effect and 10 is complete control
[13] = Preemergence, Rate 250 g/ha, scale 0 to 10, 0 is no effect, 10 is complete control
[14] = Preemergence, Rate 500 g/ha, scale 0 to 10, 0 is no effect, 10 is complete control
[15] = Rate 62 g/ha, Postemergence, scale of 0 to 10 where 0 is no effect and 10 is complete control
[16] = Rate 125 g/ha, Postemergence, scale 0 to 10, 0 is no effect, 10 is complete control
[17] = Rate 62 g/ha, flood test species, Pre-emergence
[18] = Rate 125 g/ha, flood test species
[19] = Rate 250 g/ha, Pre-emergence (flood test species), scale 0 to 10, 0 is no effect, 10 is complete control
[20] = Rate 500 g/ha, Pre-emergence, flood test species, scale 0 to 10 (0 no effect, 10 complete control)
[21] = Preemergence, Rate 62 g/ha, scale of 0 to 10 where 0 is no effect and 10 is complete control
[22] = Rate 62 g/ha, Postemergence, scale 0 to 10, 0 no effect, 10 complete control

Row | SMILES | Barnyardgrass plant response rating [1, 5] | Barnyardgrass plant response rating [1, 6] | Blackgrass plant response rating [2, 9] | Blackgrass plant response rating [2, 10] | Plant response rating, Blackgrass [2, 12] | Blackgrass plant response rating [2, 13] | Blackgrass plant response rating [2, 14] | Blackgrass plant response rating [2, 16] | Morningglory plant response rating [3, 9] | Morningglory plant response rating [3, 10] | Plant response rating, Morningglory [3, 12] | Morningglory plant response rating [3, 13] | Morningglory plant response rating [3, 14] | Morningglory plant response rating [3, 16] | Crabgrass plant response rating [4, 9] | Crabgrass plant response rating [4, 10] | Plant response rating, Crabgrass [4, 12] | Crabgrass plant response rating [4, 13] | Crabgrass plant response rating [4, 14] | Crabgrass plant response rating [4, 16] | also measured
1 | CC(C)N(C(=O)n1oc(=O)n(CC2=NOCCC2)c1=O)c1ccccc1 [Compound 430] | 0 | 0 | 7 | 8 | 3 | 7 | 9 | 3 | 3 | 3 | 0 | 0 | 0 | 2 | 8 | 9 | 10 | 10 | 10 | 2 | Barnyardgrass plant response rating [1, 7]: 0; Barnyardgrass plant response rating [1, 8]: 0; Plant response rating, Blackgrass [2, 11]: 0; Blackgrass plant response rating [2, 15]: 2; Plant response rating, Morningglory [3, 11]: 0; Plant response rating, Crabgrass [4, 11]: 9; Crabgrass plant response rating [4, 15]: 1
2 | CC(C)N(C(=O)n1oc(=O)n(CC#N)c1=O)c1ccc(F)cc1F [Compound 431] | 0 | 0 | 2 | 5 | 0 | 0 | 3 | 0 | 1 | 2 | 0 | 0 | 0 | 1 | 0 | 2 |  |  | 3 | 0 | Barnyardgrass plant response rating [1, 7]: 0; Barnyardgrass plant response rating [1, 8]: 0; Plant response rating, Blackgrass [2, 11]: 0; Blackgrass plant response rating [2, 15]: 0; Plant response rating, Morningglory [3, 11]: 0; Plant response rating, Crabgrass [4, 11]: 0; Crabgrass plant response rating [4, 15]: 0
3 | CC(C)N(C(=O)n1oc(=O)n(CCC#N)c1=O)c1ccc(F)cc1F [Compound 433] | 0 | 0 | 7 | 10 | 2 | 3 | 9 | 5 | 4 | 7 | 0 | 2 | 3 | 2 | 4 | 9 | 10 | 10 | 10 | 2 | Barnyardgrass plant response rating [1, 7]: 0; Barnyardgrass plant response rating [1, 8]: 0; Plant response rating, Blackgrass [2, 11]: 2; Blackgrass plant response rating [2, 15]: 2; Plant response rating, Morningglory [3, 11]: 0; Plant response rating, Crabgrass [4, 11]: 9; Crabgrass plant response rating [4, 15]: 2
4 | CC(C)N(C(=O)n1oc(=O)n(CCl)c1=O)c1ccc(F)cc1F [Compound 437] |  |  | 0 | 0 | 0 | 0 | 0 | 0 | 4 | 9 | 0 | 0 | 0 | 1 | 1 | 3 | 0 | 0 | 2 | 1 | Plant response rating, Barnyardgrass (0 to 10 scale, 0 is no effect, 10 is complete control) [1, 17]: 0; Barnyardgrass plant response rating (0 to 10 scale, 0 is no effect, 10 is complete control) [1, 18]: 0; Barnyardgrass plant response rating [1, 19]: 0; Barnyardgrass plant response rating [1, 20]: 0; Plant response rating, Blackgrass [2, 21]: 0; Blackgrass plant response rating [2, 22]: 0; Plant response rating, Morningglory [3, 21]: 0; Morningglory plant response rating [3, 22]: 0; Plant response rating, Crabgrass [4, 21]: 0; Crabgrass plant response rating [4, 22]: 0
5 | COC(C)n1c(=O)on(C(=O)N(c2ccc(F)cc2)C(C)C)c1=O (stereo not shown) [Compound 439] |  |  | 0 | 0 | 0 | 0 | 0 | 0 | 0 | 0 | 0 | 0 | 0 | 0 | 0 | 0 | 0 | 0 | 0 | 0 | Plant response rating, Barnyardgrass (0 to 10 scale, 0 is no effect, 10 is complete control) [1, 17]: 0; Barnyardgrass plant response rating (0 to 10 scale, 0 is no effect, 10 is complete control) [1, 18]: 0; Barnyardgrass plant response rating [1, 19]: 0; Barnyardgrass plant response rating [1, 20]: 0; Plant response rating, Blackgrass [2, 21]: 0; Blackgrass plant response rating [2, 22]: 0; Plant response rating, Morningglory [3, 21]: 0; Morningglory plant response rating [3, 22]: 0; Plant response rating, Crabgrass [4, 21]: 0; Crabgrass plant response rating [4, 22]: 0
6 | Cc1nc(C)c(C(C)n2c(=O)on(C(=O)N(c3ccc(F)cc3F)C(C)C)c2=O)s1 (stereo not shown) [Compound 443] |  |  | 0 | 0 | 0 | 0 | 0 | 0 | 4 | 4 | 0 | 0 | 0 | 3 | 0 | 0 | 6 | 9 | 9 | 0 | Plant response rating, Barnyardgrass (0 to 10 scale, 0 is no effect, 10 is complete control) [1, 17]: 0; Barnyardgrass plant response rating (0 to 10 scale, 0 is no effect, 10 is complete control) [1, 18]: 0; Barnyardgrass plant response rating [1, 19]: 0; Barnyardgrass plant response rating [1, 20]: 0; Plant response rating, Blackgrass [2, 21]: 0; Blackgrass plant response rating [2, 22]: 0; Plant response rating, Morningglory [3, 21]: 0; Morningglory plant response rating [3, 22]: 2; Plant response rating, Crabgrass [4, 21]: 5; Crabgrass plant response rating [4, 22]: 0
